Assay results reported in ChEMBL document CHEMBL1201862, “PubChem BioAssay data set” (2004).
Active and inactive are the calls of the source.

Tests used:
[1] = target: T1, High affinity choline transporter 1 (Homo sapiens, UniProt Q9GZV3); test: CHT inhibitors, dose response, cell-based, 5-point CRC, membrane potential dye (AID 504840); type: functional
T1 sequence (Q9GZV3 whole entry): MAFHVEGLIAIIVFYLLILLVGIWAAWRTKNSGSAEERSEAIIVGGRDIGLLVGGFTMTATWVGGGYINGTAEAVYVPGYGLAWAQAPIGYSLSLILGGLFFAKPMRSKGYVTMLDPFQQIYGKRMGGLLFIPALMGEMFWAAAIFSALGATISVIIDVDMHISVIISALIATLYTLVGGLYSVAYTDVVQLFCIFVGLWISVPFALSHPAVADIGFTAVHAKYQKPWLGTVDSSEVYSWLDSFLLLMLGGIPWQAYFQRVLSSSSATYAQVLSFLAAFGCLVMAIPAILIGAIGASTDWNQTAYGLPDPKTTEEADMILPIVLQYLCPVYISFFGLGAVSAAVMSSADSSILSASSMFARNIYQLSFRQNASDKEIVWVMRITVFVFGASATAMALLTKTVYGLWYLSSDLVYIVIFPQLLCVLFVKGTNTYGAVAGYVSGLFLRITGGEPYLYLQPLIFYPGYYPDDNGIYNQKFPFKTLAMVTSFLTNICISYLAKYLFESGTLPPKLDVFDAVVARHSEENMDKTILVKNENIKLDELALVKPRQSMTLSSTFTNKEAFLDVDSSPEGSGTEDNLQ

[2] = test system: HEK293; test: cells; type: functional, cell-based; settings: Homo sapiens
[3] = target: T2, Nuclear receptor subfamily 0 group B member 1 (Homo sapiens, UniProt P51843); test: Luminescence-based cell-based high throughput dose response assay for inhibitors of the orphan nuclear receptor subfamily 0, group B, member 1 (DAX1; NR0B1). [Related pubchem assays (depositor defined):AID504766, AID504790]; type: functional
T2 sequence (P51843 whole entry): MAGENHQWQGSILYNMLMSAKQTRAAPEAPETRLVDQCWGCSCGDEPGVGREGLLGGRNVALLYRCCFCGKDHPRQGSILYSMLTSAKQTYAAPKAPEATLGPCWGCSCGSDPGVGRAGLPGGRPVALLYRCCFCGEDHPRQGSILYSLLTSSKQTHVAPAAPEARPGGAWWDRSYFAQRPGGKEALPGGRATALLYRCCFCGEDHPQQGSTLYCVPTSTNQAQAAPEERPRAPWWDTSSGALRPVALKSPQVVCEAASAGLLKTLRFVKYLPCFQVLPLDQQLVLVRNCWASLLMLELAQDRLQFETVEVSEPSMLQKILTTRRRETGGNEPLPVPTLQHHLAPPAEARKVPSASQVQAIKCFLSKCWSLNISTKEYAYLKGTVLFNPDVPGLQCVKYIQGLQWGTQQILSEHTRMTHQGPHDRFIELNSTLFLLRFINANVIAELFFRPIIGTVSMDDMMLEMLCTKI

[4] = test system: HEK293; test: NOD1 signaling inhibitors, primary screen, cell-based, luminescence, uHTS (AID 1578); type: functional; settings: Homo sapiens
[5] = test system: HEK293; test: cells; type: functional, cell-based; settings: Homo sapiens; remark: listed apart in the source
[6] = test system: HEK293; test: cells; type: functional, cell-based; settings: Homo sapiens; remark: listed apart in the source
[7] = test system: HEK293; test: NOD2 signaling inhibitors in MDP-stimulated cells, cell-based, uHTS, luminescence (AID 2001); type: functional; settings: Homo sapiens
[8] = target: T3, Aminopeptidase N (Plasmodium falciparum FcB1/Columbia, UniProt O96935); test: P. falciparum M1AAP inhibitors, biochemical, fluorogenic H-Leu-NHMec substrate, 1536-well (AID 1445); design: species or system Plasmodium falciparum 3D7, 3D7
T3 sequence (O96935 whole entry): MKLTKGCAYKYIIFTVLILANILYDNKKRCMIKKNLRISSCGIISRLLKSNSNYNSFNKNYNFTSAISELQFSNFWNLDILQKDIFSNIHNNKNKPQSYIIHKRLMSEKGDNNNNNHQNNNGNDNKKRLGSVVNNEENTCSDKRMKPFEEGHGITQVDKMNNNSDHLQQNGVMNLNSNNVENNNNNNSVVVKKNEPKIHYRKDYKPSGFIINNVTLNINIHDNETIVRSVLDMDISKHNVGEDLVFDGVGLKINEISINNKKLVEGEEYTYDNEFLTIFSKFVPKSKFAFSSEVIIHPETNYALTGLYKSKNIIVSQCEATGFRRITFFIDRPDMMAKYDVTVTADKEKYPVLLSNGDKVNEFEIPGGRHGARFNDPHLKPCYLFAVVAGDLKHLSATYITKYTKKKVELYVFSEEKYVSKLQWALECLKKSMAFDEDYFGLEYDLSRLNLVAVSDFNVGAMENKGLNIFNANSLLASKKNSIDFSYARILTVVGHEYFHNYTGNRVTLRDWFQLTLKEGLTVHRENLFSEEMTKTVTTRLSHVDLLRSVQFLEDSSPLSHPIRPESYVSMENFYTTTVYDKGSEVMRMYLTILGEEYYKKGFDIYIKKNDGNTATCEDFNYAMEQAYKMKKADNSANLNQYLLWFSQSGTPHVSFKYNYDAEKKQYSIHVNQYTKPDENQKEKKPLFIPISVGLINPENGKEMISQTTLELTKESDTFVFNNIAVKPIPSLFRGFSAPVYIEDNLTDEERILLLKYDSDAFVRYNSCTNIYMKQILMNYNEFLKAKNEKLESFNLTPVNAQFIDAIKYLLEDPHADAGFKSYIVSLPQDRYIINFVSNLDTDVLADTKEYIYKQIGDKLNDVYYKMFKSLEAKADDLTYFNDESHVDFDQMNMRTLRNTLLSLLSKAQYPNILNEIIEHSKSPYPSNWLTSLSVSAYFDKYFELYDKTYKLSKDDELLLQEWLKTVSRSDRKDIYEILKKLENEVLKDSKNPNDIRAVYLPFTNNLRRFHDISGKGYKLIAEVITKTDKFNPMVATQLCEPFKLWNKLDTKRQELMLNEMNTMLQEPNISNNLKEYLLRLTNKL

[9] = target: T4, SUMO-activating enzyme (Homo sapiens, UniProt Q9UBT2); test: SUMOylation inhibitor hit validation, confirmation, SUMOylation inhibitor project, biochemical, AlphaScreen (AID 2018); type: functional
T4 sequence (Q9UBE0 whole entry): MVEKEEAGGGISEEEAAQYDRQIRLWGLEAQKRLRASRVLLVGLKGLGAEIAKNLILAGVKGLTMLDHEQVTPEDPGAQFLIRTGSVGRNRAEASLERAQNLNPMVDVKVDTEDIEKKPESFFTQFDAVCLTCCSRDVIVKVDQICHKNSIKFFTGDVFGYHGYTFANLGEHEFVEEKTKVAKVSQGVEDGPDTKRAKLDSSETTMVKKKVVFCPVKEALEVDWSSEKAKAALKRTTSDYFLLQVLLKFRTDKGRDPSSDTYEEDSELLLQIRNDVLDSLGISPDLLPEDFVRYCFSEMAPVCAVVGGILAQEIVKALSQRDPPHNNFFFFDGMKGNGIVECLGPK
T4 sequence (Q9UBT2 whole entry): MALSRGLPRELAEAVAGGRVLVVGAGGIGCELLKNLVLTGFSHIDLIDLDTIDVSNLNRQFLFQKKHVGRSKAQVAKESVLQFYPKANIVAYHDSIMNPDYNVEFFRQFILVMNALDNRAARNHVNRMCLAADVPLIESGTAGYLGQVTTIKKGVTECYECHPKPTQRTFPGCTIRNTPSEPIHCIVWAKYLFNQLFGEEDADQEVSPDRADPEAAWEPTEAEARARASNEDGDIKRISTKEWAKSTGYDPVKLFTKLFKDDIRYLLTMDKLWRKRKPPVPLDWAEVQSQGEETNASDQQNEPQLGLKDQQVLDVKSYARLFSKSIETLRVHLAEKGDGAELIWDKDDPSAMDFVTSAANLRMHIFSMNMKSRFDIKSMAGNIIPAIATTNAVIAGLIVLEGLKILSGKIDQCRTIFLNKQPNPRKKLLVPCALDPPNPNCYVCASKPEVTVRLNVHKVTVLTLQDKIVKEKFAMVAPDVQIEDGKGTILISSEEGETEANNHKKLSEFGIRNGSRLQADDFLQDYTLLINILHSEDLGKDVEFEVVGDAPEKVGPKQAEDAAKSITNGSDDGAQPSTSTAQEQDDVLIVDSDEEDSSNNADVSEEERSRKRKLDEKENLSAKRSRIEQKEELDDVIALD

[10] = target: T4, SUMO-activating enzyme; test: inhibitors of in vitro SUMOylation cascade, primary screen, biochemical, HTRF, uHTS (AID 2006); type: protein-complex assay
[11] = target: T5, Cysteine protease ATG4B (Homo sapiens, UniProt Q9Y4P1); type: functional;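 note: Fluorescence-based dose-response confirmation assay measuring inhibition of ATG4B activity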
T5 sequence (Q9Y4P1 whole entry): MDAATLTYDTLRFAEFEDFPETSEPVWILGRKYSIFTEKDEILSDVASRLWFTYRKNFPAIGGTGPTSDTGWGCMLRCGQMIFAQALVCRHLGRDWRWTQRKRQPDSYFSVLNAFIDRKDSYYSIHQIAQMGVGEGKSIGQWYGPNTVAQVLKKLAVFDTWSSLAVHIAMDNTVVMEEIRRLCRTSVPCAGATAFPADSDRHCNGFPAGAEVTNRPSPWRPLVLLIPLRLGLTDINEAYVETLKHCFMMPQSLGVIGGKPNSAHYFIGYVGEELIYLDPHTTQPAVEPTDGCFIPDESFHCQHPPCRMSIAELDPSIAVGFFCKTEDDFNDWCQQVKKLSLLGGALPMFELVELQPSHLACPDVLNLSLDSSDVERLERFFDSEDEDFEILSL

[12] = target: Phospholipase A2 (Homo sapiens, UniProt P04054); type: functional;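 note: confirmatory dose-response counterscreen on phospholipase A2, testing hits that came from an ultra-high-throughput screen for ATG4B inhibitors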
Chain of Phospholipase A2 (P04054 whole entry): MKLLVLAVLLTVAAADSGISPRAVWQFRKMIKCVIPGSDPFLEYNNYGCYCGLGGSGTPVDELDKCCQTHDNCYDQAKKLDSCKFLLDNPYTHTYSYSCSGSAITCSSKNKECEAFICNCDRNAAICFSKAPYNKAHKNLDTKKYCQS

[13] = NIH-3T3 fibroblast cytotoxicity, dose response, cytotoxicity control, cell-based, fluorescence, Alamar Blue, secondary assay (AID 2327); type: functional;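 note: NIH-3T3 mouse fibroblasts cultured with fluconazole at 8 µg/mL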
[14] = Luminescence Cell-Based Dose Confirmation HTS to Identify Activators of 5'UTR Stem-Loop Driven Alpha-Synuclein mRNA Translation in H4 Neuroglioblastoma Cells. [Related pubchem assays: 1829 (Project Summary), 1814 (Primary HTS)]; type: functional
[15] = Luminescence Cell-Based Dose Response HTS to Identify Activators of Luciferase Translation or Activity in H4 […] Cells. [Related pubchem assays: 1829 (Project Summary), 1814 (Primary HTS)]; type: functional
[16] = test system: H4; test: Luminescence Cell-Based Dose Response HTS to Identify Activators of 5'UTR Stem-Loop Driven Prion Protein mRNA Translation in H4 Neuroglioblastoma Cells. [Related pubchem assays: 1829 (Project Summary), 1814 (Primary HTS)]; type: functional; settings: Homo sapiens
[17] = C. albicans growth with fluconazole, confirmation, fluorescence, retest (AID 2467); type: functional, cell-based
[18] = THP-1 cell cytotoxicity, dose response, cytotoxicity control for non-replicating M. tuberculosis project (AID 489025); type: functional
[19] = HepG2 cell cytotoxicity, dose response, cytotoxicity control for non-replicating M. tuberculosis project (AID 489018); type: functional; settings: Mycobacterium tuberculosis
[20] = Vero E6 cell cytotoxicity, dose response, cytotoxicity control for non-replicating M. tuberculosis project, secondary assay (AID 492998); type: functional, VeroE6; settings: Vero C1008
[21] = cells; type: functional
[22] = test system: Vero; test: cells; type: functional; settings: Chlorocebus sabaeus

SMILES: Cc1nn(-c2ccccc2)nc1C(=O)Nc1nnc(C(F)(F)F)s1
- IC50 [1]: 17.4 µM (active)

SMILES: COc1ccc(NC(=O)NNC(=O)CCC(=O)Nc2ccccc2Cl)cc1
- IC50 [2]: > 67.5 µM (inactive)
- IC50 [3]: > 67.5 µM (inactive)

SMILES: COc1cc2ncnc(NCCc3ccccc3)c2cc1OC
- EC50 [4]: 19 µM (active)
- IC50 [5]: > 20 µM (inactive)
- IC50 [6]: > 20 µM (inactive)
- IC50 [7]: 19.3 µM (inactive)

SMILES: COc1cccc(-c2nc(SCC(=O)Nc3nc(-c4ccccc4)c(C)s3)[nH]c(=O)c2C#N)c1
- IC50 [8]: 21.2 µM (active)
- IC50 [9]: 5.37 µM (active)
- IC50 [10]: 15.2 µM (active)
- IC50 [11]: 14.9 µM (active)
- IC50 [12]: 15 µM (active)

SMILES: O=C(NNC(=O)c1ccccc1O)c1ccc(Br)cc1
- IC50 [2]: > 67.5 µM (inactive)
- IC50 [3]: > 67.5 µM (inactive)

SMILES: O=C(Nc1cccc2ccccc12)c1ccc([N+](=O)[O-])o1
- EC50 [13]: > 150 µM (inactive)
- EC50 [14]: > 120 µM (not active)
- EC50 [15]: > 120 µM (not active)
- EC50 [16]: > 120 µM (not active)
- EC50 [17]: 1.51 µM (active)
- CC50 [18]: 12.7 µM (active)
- CC50 [19]: 15.1 µM (active)
- CC50 [20]: 6.37 µM (active)
- IC50 [21]: 5.22 µM (active)
- CC50 [22]: 17.8 µM (active)
